Experimental data taken from ChEMBL document CHEMBL1146926, “Fluorescent non-imidazole histamine H3 receptor ligands with nanomolar affinities” (Bioorg Med Chem Lett, 2006).
pKi: −log10 of the molar value.

What follows are compounds tested against Histamine H3 receptor (Homo sapiens, UniProt Q9Y5N1) (assay: Displacement of [125I]iodoproxyfan from human histamine H3 receptor expressed in CHOK1 cells).
Chain of Histamine H3 receptor (Q9Y5N1 whole entry): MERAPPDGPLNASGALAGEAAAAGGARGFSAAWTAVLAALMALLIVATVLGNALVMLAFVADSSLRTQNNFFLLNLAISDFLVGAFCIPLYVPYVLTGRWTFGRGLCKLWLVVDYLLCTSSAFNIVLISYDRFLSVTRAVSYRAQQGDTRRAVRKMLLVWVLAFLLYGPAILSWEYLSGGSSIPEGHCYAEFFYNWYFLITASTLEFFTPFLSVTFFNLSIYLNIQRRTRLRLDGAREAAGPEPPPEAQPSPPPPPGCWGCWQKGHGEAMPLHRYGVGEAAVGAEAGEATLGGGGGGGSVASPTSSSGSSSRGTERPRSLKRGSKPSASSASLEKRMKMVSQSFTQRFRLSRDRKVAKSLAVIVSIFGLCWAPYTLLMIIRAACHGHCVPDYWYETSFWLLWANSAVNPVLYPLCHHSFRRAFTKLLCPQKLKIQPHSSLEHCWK
Type: cell-based, CHO-K1
Compound `N#Cc1c2ccccc2cn1CCCCCN1CCCCC1` has a pKi of 7.51. In the case of `N#Cc1c2ccccc2cn1CCCCN1CCCCC1`, the pKi was 6.75. `N#Cc1c2ccccc2cn1CCCCCCN1CCCCC1` was tested, and the pKi was 7.51. `O=[N+]([O-])c1ccc(NCCCCN2CCCCC2)c2nonc12` was tested, and the pKi was 6.77. `O=[N+]([O-])c1ccc(NCCCCCN2CCCCC2)c2nonc12` gave a pKi of 7.96. `N#Cc1c2ccccc2cn1CCCN1CCCCC1` was tested, and the pKi was 6.45.
